{"source": "patent US12060352B2", "about": "“Substituted pyrrolo[2,3-d]pyrimidines having ectonucleotide pyrophosphatase-phosphodiesterase inhibitory activity” (KOREA INSTITUTE OF SCIENCE AND TECHNOLOGY, priority 2021, dated 2024)", "note": "Structures can show the parent of a compound that is named as a salt.", "data": [{"target": "T1, human recombinant ENPP1 (Homo sapiens, UniProt P22413)", "T1 construct": "purchased R&D Systems", "T1 sequence (P22413 1-925)": "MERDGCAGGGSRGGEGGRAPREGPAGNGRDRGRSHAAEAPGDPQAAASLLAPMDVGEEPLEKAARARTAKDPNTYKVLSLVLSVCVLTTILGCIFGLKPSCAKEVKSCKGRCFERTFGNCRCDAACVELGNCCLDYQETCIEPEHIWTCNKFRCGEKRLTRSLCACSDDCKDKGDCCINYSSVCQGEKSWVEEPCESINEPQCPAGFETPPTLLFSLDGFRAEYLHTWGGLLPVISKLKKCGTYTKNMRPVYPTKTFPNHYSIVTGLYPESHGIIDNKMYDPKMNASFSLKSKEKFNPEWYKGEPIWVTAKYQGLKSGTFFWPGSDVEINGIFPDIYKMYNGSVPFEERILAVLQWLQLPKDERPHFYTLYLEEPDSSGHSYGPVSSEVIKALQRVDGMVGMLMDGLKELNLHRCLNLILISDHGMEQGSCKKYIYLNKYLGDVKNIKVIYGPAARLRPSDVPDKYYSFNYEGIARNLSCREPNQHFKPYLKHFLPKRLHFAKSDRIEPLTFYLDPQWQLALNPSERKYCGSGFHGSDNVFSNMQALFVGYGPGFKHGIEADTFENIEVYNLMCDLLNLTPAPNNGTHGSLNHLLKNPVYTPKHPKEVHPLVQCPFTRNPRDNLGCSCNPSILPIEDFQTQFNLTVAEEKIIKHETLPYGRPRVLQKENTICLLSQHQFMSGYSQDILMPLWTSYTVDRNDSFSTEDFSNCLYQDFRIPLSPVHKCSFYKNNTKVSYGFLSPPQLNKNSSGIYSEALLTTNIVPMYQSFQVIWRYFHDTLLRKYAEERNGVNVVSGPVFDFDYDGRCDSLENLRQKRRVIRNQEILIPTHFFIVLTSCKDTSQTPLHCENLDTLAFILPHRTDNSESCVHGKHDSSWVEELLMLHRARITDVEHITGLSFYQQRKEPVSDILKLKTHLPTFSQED", "assay": "ENPP1 enzyme assay with cGAMP substrate (AMP-Glo)", "format": "biochemical", "conditions": "human recombinant ENPP1 3 ng per reaction, cGAMP 5 μM, 37° C., 90 minutes, AMP-Glo luminescence", "description": "ENPP1 hydrolyzes nucleotides or nucleotide derivatives to yield nucleoside-5′-monophosphate and pyrophosphate. In addition, ENPP1 hydrolyzes 2′,3′-cGAMP to yield 5′-adenosine monophosphate (AMP) and 5′-guanosine monophosphate (GMP). AMP obtained through the above reaction was measured using an AMP-Glo® kit (Promega). The AMP-Glo® kit includes two reagents. The first reagent terminates the AMP-producing enzyme reaction, removes ATP, and converts the produced AMP into ADP. The second reagent converts ADP into ATP, the ATP being used to generate luminescence in the luciferase reaction. The amount of luminescence measured as described above is proportional to the amount of AMP produced by ENPP1.\nThe final reaction mixture for an assay system contains 50 mM Tris (pH 8.5) buffer, 250 mM NaCl, 0.5 mM CaCl2, 1 μM ZnCl2, 5% glycerol, and 1% DMSO. […] The reaction was initiated by addition of cGAMP (at a final concentration of 5 μM) and carried out at 37° C. for 90 minutes. At the end of the reaction, 10 μl of AMP-Glo first reagent was added to stop the reaction, and then the reaction mixture was stored at room temperature for 1 hour. After storage, the mixture was added with 20 μl of an AMP detection solution (a mixture of AMP-Glo II reagent and Kinase-Glo at a ratio of 1:100) and stored at room temperature for 1 hour. Luminescence signals were measured using a Victor® plate reader (Perkin Elmer). The maximal activity control (containing an enzyme and a substrate in the presence of 1% DMSO; MAX) and the minimal activity control (containing a substrate and 1% DMSO; MIN) were evaluated simultaneously. In each experiment, serially diluted reference ENPP1 inhibitors were tested together. IC50 values for % residual activity versus compound concentration were determined by fitting inhibition curves using a 3-parameter variable slope in GraphPad Prism® software.", "units": {"IC50": "nM"}, "values": [{"smiles": "NS(=O)(=O)N1CCc2cc(-c3ncnc4[nH]ccc34)ccc2C1", "note": "[Example 42, 6-(7H-pyrrolo[2,3-d]pyrimidin-4-yl)-3,4-dihydroisoquinoline-2(1H)-sulfonamide hydrochloride]", "IC50": "1000 to 10000"}, {"smiles": "Cc1cc2c(N3CCC(CNS(N)(=O)=O)CC3)ncnc2[nH]1", "note": "[Example 51, N-((1-(6-methyl-7H-pyrrolo[2,3-d]pyrimidin-4-yl)piperidin-4-yl)methyl)sulfamide]", "IC50": "< 1000"}, {"smiles": "NCC1CCN(c2ncnc3[nH]ccc23)CC1", "note": "[Example 65, (1-(7H-pyrrolo[2,3-d]pyrimidin-4-yl)piperidin-4-yl)methenamine hydrochloride]", "IC50": "1000 to 10000"}, {"smiles": "NS(=O)(=O)NCC1CCN(c2ncnc3c2ccn3C2CC2)CC1", "note": "[Example 46, N-((1-(7-cyclopropyl-7H-pyrrolo[2,3-d]pyrimidin-4-yl)piperidin-4-yl)methyl)sulfamide]", "IC50": "< 1000"}, {"smiles": "NCc1ccc(-c2ncnc3[nH]ccc23)cc1", "note": "[Example 11, (4-(7H-pyrrolo[2,3-d]pyrimidin-4-yl)phenyl)methenamine hydrochloride]", "IC50": "1000 to 10000"}, {"smiles": "NS(=O)(=O)NCc1ccc(-c2ncnc3[nH]ccc23)cc1", "note": "[Example 25, N-(4-(7H-pyrrolo[2,3-d]pyrimidin-4-yl)benzyl)sulfamide hydrochloride]", "IC50": "1000 to 10000"}, {"smiles": "NS(=O)(=O)NCc1ccc(-c2ccnc3[nH]ccc23)cc1", "note": "[Example 24, N-(4-(1H-pyrrolo[2,3-b]pyridin-4-yl)benzyl)sulfamide hydrochloride]", "IC50": "1000 to 10000"}, {"smiles": "CSc1nc(N2CCC(CCNS(N)(=O)=O)CC2)c2cc[nH]c2n1", "note": "[Example 53, N-(2-(1-(2-(methylthio)-7H-pyrrolo[2,3-d]pyrimidin-4-yl)piperidin-4-yl)ethyl)sulfamide]", "IC50": "> 10000"}, {"smiles": "NS(=O)(=O)NCc1cccc(-c2ncnc3[nH]ccc23)c1", "note": "[Example 34, N-(3-(7H-pyrrolo[2,3-d]pyrimidin-4-yl)benzyl)sulfamide hydrochloride]", "IC50": "1000 to 10000"}, {"smiles": "c1nc(N2CCC3(CCNC3)CC2)c2cc[nH]c2n1", "note": "[Example 66, 8-(7H-pyrrolo[2,3-d]pyrimidin-4-yl)-2,8-diazaspiro[4.5]decane hydrochloride]", "IC50": "> 10000"}, {"smiles": "NS(=O)(=O)NCC1CCN(c2ncnc3c2ccn3-c2cccnc2)CC1", "note": "[Example 84, N-((1-(7-(pyridin-3-yl)-7H-pyrrolo[2,3-d]pyrimidin-4-yl)piperidin-4-yl)methyl)sulfamide hydrochloride]", "IC50": "1000 to 10000"}, {"smiles": "Cc1c[nH]c2ncnc(N3CCC(CN)CC3)c12", "note": "[Example 63, (1-(5-methyl-7H-pyrrolo[2,3-d]pyrimidin-4-yl)piperidin-4-yl)methenamine hydrochloride]", "IC50": "> 10000"}, {"smiles": "Cn1ccc2c(N3CCC(CNS(N)(=O)=O)CC3)ncnc21", "note": "[Example 44, N-((1 (7-methyl-7H-pyrrolo[2,3-d]pyrimidin-4-yl)piperidin-4-yl)methyl)sulfamide]", "IC50": "< 1000"}, {"smiles": "NS(=O)(=O)NC1CCN(c2ncnc3[nH]ccc23)CC1", "note": "[Example 79, N-(1-(7H-pyrrolo[2,3-d]pyrimidin-4-yl)piperidin-4-yl)sulfamide hydrochloride]", "IC50": "1000 to 10000"}, {"smiles": "NCC1CCN(c2ncnc3c2ccn3-c2ccco2)CC1", "note": "[Example 69, (1-(7-(furan-2-yl)-7H-pyrrolo[2,3-d]pyrimidin-4-yl)piperidin-4-yl)methenamine hydrochloride]", "IC50": "1000 to 10000"}, {"smiles": "NS(=O)(=O)NCC1CCN(c2ncnc3c2ccn3-c2ccco2)CC1", "note": "[Example 83, N-((1-7-(furan-2-yl)-7H-pyrrolo[2,3-d]pyrimidin-4-yl)piperidin-4-yl)methyl)sulfamide hydrochloride]", "IC50": "< 1000"}, {"smiles": "O=S(=O)(NCC1CCN(c2ncnc3[nH]ccc23)CC1)c1cccs1", "note": "[Example 88, N-((1-(7H-pyrrolo[2,3-d]pyrimidin-4-yl)piperidin-4-yl)methyl)thiophene-2-sulfonamide]", "IC50": "1000 to 10000"}, {"smiles": "CC(NS(N)(=O)=O)c1ccc(-c2ncnc3[nH]ccc23)cc1", "note": "(stereo not shown) [Example 27, N-(1-(4-(7H-pyrrolo[2,3-d]pyrimidin-4-yl)phenyl)ethyl)sulfamide hydrochloride]", "IC50": "< 1000"}, {"smiles": "CC(C)(N)c1ccc(-c2ncnc3[nH]ccc23)cc1", "note": "[Example 12, 2-(4-(7H-pyrrolo[2,3-d]pyrimidin-4-yl)phenyl)propan-2-amine hydrochloride]", "IC50": "> 10000"}, {"smiles": "NS(=O)(=O)NCC1CCN(c2ncnc3c2ccn3-c2ccccc2)CC1", "note": "[Example 45, N-((1-(7-phenyl-7H-pyrrolo[2,3-d]pyrimidin-4-yl)piperidin-4-yl)methyl)sulfamide]", "IC50": "< 1000"}, {"smiles": "NS(=O)(=O)N1CCC2(CCN(c3ncnc4[nH]ccc34)CC2)C1", "note": "[Example 80, 8-(7H-pyrrolo[2,3-d]pyrimidin-4-yl)-2,8-diazaspiro[4.5]decane-2-sulfamide hydrochloride]", "IC50": "< 1000"}, {"smiles": "NS(=O)(=O)NCCC1CCN(c2ncnc3[nH]ccc23)CC1", "note": "[Example 54, N-(2-(1-(7H-pyrrolo[2,3-d]pyrimidin-4-yl)piperidin-4-yl)ethyl)sulfamide]", "IC50": "< 1000"}, {"smiles": "NS(=O)(=O)NCC1CCN(c2ncnc3[nH]ccc23)CC1", "note": "[Example 43, N-((1-(7H-pyrrolo[2,3-d]pyrimidin-4-yl)piperidin-4-yl)methyl)sulfamide]", "IC50": "< 1000"}, {"smiles": "CC(C)n1ccc2c(N3CCC(CNS(N)(=O)=O)CC3)ncnc21", "note": "[Example 47, N-((1-(7-isopropyl-7H-pyrrolo[2,3-d]pyrimidin-4-yl)piperidin-4-yl)methyl)sulfamide]", "IC50": "> 10000"}, {"smiles": "CC(C)(C)OC(=O)NS(=O)(=O)NCc1ccc(-c2ccnc3[nH]ccc23)cc1", "note": "[Example 17, tert-butyl (N-(4-(1H-pyrrolo[2,3-b]pyridin-4-yl)benzyl)sulfamoyl)carbamate]", "IC50": "> 10000"}, {"smiles": "CC(C)(NS(N)(=O)=O)c1ccc(-c2ncnc3[nH]ccc23)cc1", "note": "[Example 26, N-(2-(4-(7H-pyrrolo[2,3-d]pyrimidin-4-yl)phenyl)propan-2-yl)sulfamide hydrochloride]", "IC50": "< 1000"}, {"smiles": "NCc1ccc(-c2ccnc3[nH]ccc23)cc1", "note": "[Example 10, (4-(1H-pyrrolo[2,3-b]pyridin-4-yl)phenyl)methenamine hydrochloride]", "IC50": "> 10000"}, {"smiles": "CC(NS(N)(=O)=O)C1CCN(c2ncnc3[nH]ccc23)CC1", "note": "(stereo not shown) [Example 82, N-(1-(1-(7H-pyrrolo[2,3-d]pyrimidin-4-yl)piperidin-4-yl)ethyl)sulfamide hydrochloride]", "IC50": "< 1000"}, {"smiles": "Cc1c[nH]c2ncnc(N3CCC(CNS(N)(=O)=O)CC3)c12", "note": "[Example 78, N-((1-(5-methyl-7H-pyrrolo[2,3-d]pyrimidin-4-yl)piperidin-4-yl)methyl)sulfamide hydrochloride]", "IC50": "< 1000"}, {"smiles": "CC(C)(N)c1ccc(-c2ncnc3c2ccn3-c2cccnc2)cc1", "note": "[Example 15, hydrochloride]", "IC50": "> 10000"}, {"smiles": "NS(=O)(=O)NCc1ccc(-c2ncnc3[nH]ccc23)cc1F", "note": "[Example 30, N-(2-fluoro-4-(7H-pyrrolo[2,3-d]pyrimidin-4-yl)benzyl)sulfamide hydrochloride]", "IC50": "1000 to 10000"}]}]}
